Molecules are shown by their SMILES. pIC50: −log10 of the molar value. Some results are limits rather than exact numbers.

For orientation: pIC50 means −log10 of the IC50, conventionally taken in molar units. A low value points to a high IC50.

The test system of data set [1] is Trypanosoma brucei rhodesiense. Nature of the data set: Antitrypanosomal activity against Trypanosoma brucei rhodesiense STIB900 by Alamar blue growth inhibition assay. The class given is functional, organism-based. (Alamar Blue is a resazurin reagent that responds to reducing activity.)
Data set [2] in a line: Selectivity index, ratio of IC50 for rat L6 cells to IC50 for Trypanosoma brucei rhodesiense STIB900. The class given is toxicity, cell-based. The settings on record: read-out: Ratio IC50.
In a further data set the test system is L6. Put plainly: Cytotoxicity against rat L6 cells. The class given is cell-based.

Turning to `O=C(NCc1cc([N+](=O)[O-])ccc1N1CCc2ccccc2C1)NCc1cc([N+](=O)[O-])ccc1N1CCc2ccccc2C1`, the pIC50 is 5.15 in data set [1] and less than 3.77 in the data set on L6. Besides, the selectivity ratio in data set [2] is more than 23.6.

For `O=C(Cc1cc([N+](=O)[O-])ccc1F)NN1CCCCC1`, the values for the pIC50 (in data set [1]; in the data set on L6) were 3.49 and less than 3.45, respectively. Further, the selectivity ratio in data set [2] is more than 1.1.

Regarding `CN(C)CCOc1nn(Cc2ccccc2)c2ccc([N+](=O)[O-])cc12`, the results for the pIC50 (in data set [1]; in the data set with L6) were 4.97 and 4.24, respectively. The selectivity ratio in data set [2] was determined as 5.3.

With `O=C(NN1Cc2ccccc2C1)c1ccccc1F`, the pIC50 in data set [1] was 3.78; with L6 it was 3.62. Further, the selectivity ratio in data set [2] came to 1.5.

For the compound `O=C1C[N+]2(CCCCC2)c2ccc([N+](=O)[O-])cc21`, the values for the pIC50 (in data set [1]; in the data set on L6) were 3.67 and 4.07, respectively. The selectivity ratio in data set [2] amounted to 0.4.

`[O-]C1=N[N+]2(CCCCC2)c2ccccc21`: the pIC50 (in data set [1]; in the data set with L6) was less than 3.31 each time.

On to `CN(C)NC(=O)c1cc([N+](=O)[O-])ccc1Cl`, for which the pIC50 (in data set [1]; in the data set with L6) was less than 3.39 in each case.

`O=C(NN1Cc2ccccc2C1)c1ccccc1`: the pIC50 in data set [1] was less than 3.38; with L6, 4.16. Further, the selectivity ratio in data set [2] amounted to 0.2.

Turning to `CCOc1ccc([N+](=O)[O-])cc1C(=O)NN(c1ccccc1)c1ccccc1`, the pIC50 was 4.85 in data set [1] and 3.73 in the data set on L6. Further, in data set [2], the selectivity ratio came to 13.

`O=[N+]([O-])c1ccc2[nH]nc(OCc3ccccc3Cl)c2c1`: the pIC50 in data set [1] was 4.13; with L6, 4.52. Further, the selectivity ratio in data set [2] was found to be 0.4.

In the case of `O=[N+]([O-])c1ccc2c(c1)c(OCc1ccccc1)nn2Cc1ccccc1-c1ccccc1Cn1nc(OCc2ccccc2)c2cc([N+](=O)[O-])ccc21`, the pIC50 in data set [1] is 4.09; in the data set with L6, less than 3.86. Besides, the selectivity ratio in data set [2] is more than 1.7.

With `O=C(NN(Cc1ccccc1)Cc1ccccc1)c1ccccc1` [N',N'-DIBENZYLBENZOHYDRAZIDE], the pIC50 (in data set [1]; in the data set on L6) was less than 3.50 in each case.

For the compound `O=C(NN(Cc1ccccc1)Cc1ccccc1)c1cc([N+](=O)[O-])ccc1Cl`, the pIC50 was 4.42 in data set [1] and 4.38 in the data set on L6. Besides, in data set [2], the selectivity ratio came to 1.1.

For the compound `COc1nn(Cc2ccccc2F)c2ccc([N+](=O)[O-])cc12`, the pIC50 was 3.72 in data set [1] and less than 3.48 with L6. Also, the selectivity ratio in data set [2] was more than 1.7.

Take `O=c1c2cc([N+](=O)[O-])ccc2n2n1Cc1ccccc1CC2`: the results for the pIC50 (in data set [1]; in the data set on L6) were 4.06 and less than 3.47, respectively. Further, in data set [2], the selectivity ratio was more than 4.

`O=c1c2cc([N+](=O)[O-])ccc2[nH]n1Cc1ccccc1`: the pIC50 in data set [1] was 3.79; in the data set with L6 it was 3.63. The selectivity ratio in data set [2] stood at 1.4.

Take `O=C(NN1CCc2ccccc2C1)c1cc([N+](=O)[O-])ccc1Cl`: the pIC50 in data set [1] was 4.26; in the data set on L6 it was 4.66. In addition, the selectivity ratio in data set [2] amounted to 0.4.

On to `CN1C(=O)CN(CCCCCN2CCCCC2)c2ccc([N+](=O)[O-])cc21`, for which the pIC50 in data set [1] was 4.84; in the data set on L6, 4.28. The selectivity ratio in data set [2] amounted to 3.6.

`O=[N+]([O-])c1ccc2c(c1)C([O-])=N[N+]21CCCCCC1`: the pIC50 in data set [1] is 3.72; with L6, less than 3.42. Also, in data set [2], the selectivity ratio was more than 2.

For the compound `O=c1c2cc([N+](=O)[O-])ccc2n2n1Cc1ccccc1C2`, the pIC50 in data set [1] is 4.18; in the data set with L6, 3.65. Further, the selectivity ratio in data set [2] is 3.3.

With `O=c1c2cc([N+](=O)[O-])ccc2[nH]n1Cc1ccccn1`, the pIC50 is 3.60 in data set [1] and 3.54 with L6. In data set [2], the selectivity ratio was found to be 1.1.

For `Cn1[nH]c(=O)c2cc([N+](=O)[O-])ccc21`, the pIC50 in data set [1] was 3.51; in the data set with L6, less than 3.29. Also, in data set [2], the selectivity ratio was more than 1.7.

As to `O=C(NN(c1ccccc1)c1ccccc1)c1cc([N+](=O)[O-])ccc1F`, the pIC50 is 5.25 in data set [1] and 5.49 in the data set with L6. The selectivity ratio in data set [2] amounted to 0.6.

Compound `CSc1ccc(OCc2ncc([N+](=O)[O-])n2C)cc1` [FEXINIDAZOLE] showed a pIC50 in data set [1] of 5.77. Moreover, the selectivity ratio in data set [2] was more than 322.

In the case of `CN1C(=O)C2Cc3ccccc3CN2c2ccc([N+](=O)[O-])cc21` (stereo not drawn), the pIC50 in data set [1] is 4.21; with L6, 4.73. For the same compound, the selectivity ratio in data set [2] was 0.3.

On to `COc1nn(Cc2cccc(Cn3nc(OC)c4cc([N+](=O)[O-])ccc43)n2)c2ccc([N+](=O)[O-])cc12`, for which the pIC50 in data set [1] is 4.24; with L6 it was 3.82. The selectivity ratio in data set [2] amounted to 2.6.

With `CN(C)CCCOc1nn(Cc2ccccc2F)c2ccc([N+](=O)[O-])cc12`, the pIC50 was 5.28 in data set [1] and 4.49 in the data set on L6. In addition, in data set [2], the selectivity ratio was 6.1.

As for `COc1cc([C@@H]2c3cc4c(cc3[C@H](O)[C@H]3COC(=O)[C@H]23)OCO4)cc(OC)c1OC` [PODOFILOX], in the data set with L6, the pIC50 was 7.72.

Regarding `COc1nn(Cc2ccccc2Cn2nc(OC)c3ccccc32)c2ccccc12`, the pIC50 in data set [1] was 4.00; with L6, 4.35. Further, the selectivity ratio in data set [2] was found to be 0.4.

In the case of `Cn1c2ccc([N+](=O)[O-])cc2c(=O)n1-c1ccccc1`, the pIC50 in data set [1] is 3.86; with L6, 4.18. In addition, in data set [2], the selectivity ratio came out at 0.5.

In the case of `O=C(NN1CCCCC1)c1cc([N+](=O)[O-])ccc1Cl`, the pIC50 in data set [1] is 3.67; with L6 it was less than 3.45. In data set [2], the selectivity ratio was more than 1.7.

As to `O=C(NN(Cc1ccccc1)Cc1ccccc1)c1ccccc1Cl`, the pIC50 in data set [1] was 4.25; with L6, 4.29. The selectivity ratio in data set [2] was determined as 0.9.

Take `O=[N+]([O-])c1ccc2c(c1)CC([O-])=N[N+]21CCCCC1`: the pIC50 was 3.70 in data set [1] and 3.49 in the data set with L6. In addition, the selectivity ratio in data set [2] worked out at 1.6.

Take `C[n+]1cccc2c(=O)n3n(c21)Cc1ccccc1C3`: the pIC50 in data set [1] was 3.62; with L6, less than 3.58. In addition, the selectivity ratio in data set [2] was more than 1.1.

Take `CON1C(=O)C2CCCCN2c2ccc([N+](=O)[O-])cc21` (stereo not drawn): the pIC50 in data set [1] is 3.92; with L6, 4.17. Moreover, in data set [2], the selectivity ratio came out at 0.6.

In the case of `COc1nn(Cc2ccccc2Cn2nc(OC)c3cc([N+](=O)[O-])ccc32)c2ccc([N+](=O)[O-])cc12`, the pIC50 was 3.92 in data set [1] and less than 3.69 with L6. In data set [2], the selectivity ratio was more than 1.7.

For `CN1C(=O)C2CCCCN2c2ccc([N+](=O)[O-])cc21` (stereo not drawn), the pIC50 in data set [1] was 3.81; in the data set with L6, 3.99. Further, in data set [2], the selectivity ratio is 0.7.

Take `O=C(Cc1cc([N+](=O)[O-])ccc1F)NN1Cc2ccccc2C1`: the pIC50 in data set [1] was 3.75; in the data set with L6, 3.77. Besides, the selectivity ratio in data set [2] worked out at 0.9.

As for `CN1C(=O)C2=Cc3ccccc3CCN2c2ccc([N+](=O)[O-])cc21`, the pIC50 was 3.72 in data set [1] and less than 3.51 in the data set on L6. Further, the selectivity ratio in data set [2] was more than 1.6.

`O=c1c2cc([N+](=O)[O-])ccc2n(Cc2ccccc2)n1Cc1ccccc1`: the pIC50 in data set [1] was 4.31; with L6, 4.43. In addition, the selectivity ratio in data set [2] turned out to be 0.8.

Take `Cn1c2ccc([N+](=O)[O-])cc2c(=O)n1Cc1ccccc1`: the values for the pIC50 (in data set [1]; with L6) were 5.09 and 4.36, respectively. Further, in data set [2], the selectivity ratio came out at 5.3.

Consider `O=c1[nH]n(-c2ccccc2)c2ccc([N+](=O)[O-])cc12`, for which the pIC50 in data set [1] was 3.96; in the data set with L6, 3.80. In addition, the selectivity ratio in data set [2] amounted to 1.4.

As for `O=C(NN1Cc2ccccc2CN1)c1cc([N+](=O)[O-])ccc1Cl`, the pIC50 in data set [1] was 4.09; with L6, 3.75. Moreover, the selectivity ratio in data set [2] amounted to 2.2.

For `O=C(NN(Cc1ccccc1)Cc1ccccc1)c1cc([N+](=O)[O-])ccc1F`, the results for the pIC50 (in data set [1]; in the data set with L6) were 4.77 and 4.71, respectively. Further, in data set [2], the selectivity ratio worked out at 1.1.

As to `O=C(NN1Cc2ccccc2C1)c1cccnc1Cl`, the pIC50 (in data set [1]; with L6) was less than 3.44 each time.

Turning to `CCCn1c2ccc([N+](=O)[O-])cc2c(=O)n1Cc1ccccc1`, the pIC50 was 4.70 in data set [1] and 4.11 with L6. For the same compound, in data set [2], the selectivity ratio worked out at 3.9.

Take `O=C(NN1Cc2ccccc2C1)c1cc([N+](=O)[O-])ccc1Cl`: the pIC50 was 4.01 in data set [1] and 4.70 with L6. For the same compound, the selectivity ratio in data set [2] came to 0.2.

Consider `CN1C(=O)C2Cc3ccccc3CCN2c2ccc([N+](=O)[O-])cc21` (stereo not drawn), for which the pIC50 in data set [1] was 4.20; in the data set on L6, 4.82. Moreover, the selectivity ratio in data set [2] turned out to be 0.2.

For `O=C(NN1CCc2ccccc2C1)c1cc([N+](=O)[O-])ccc1F`, the pIC50 is 4.64 in data set [1] and less than 3.50 with L6. Besides, the selectivity ratio in data set [2] was more than 13.7.

As to `Cn1c(=O)c2cc([N+](=O)[O-])ccc2n1Cc1ccccc1`, the results for the pIC50 (in data set [1]; with L6) were 3.79 and 3.78, respectively. The selectivity ratio in data set [2] was 1.

As for `O=C(NN1Cc2ccccc2C1)c1cc([N+](=O)[O-])ccc1F`, the values for the pIC50 (in data set [1]; with L6) were 4.40 and less than 3.48, respectively. Further, the selectivity ratio in data set [2] is more than 8.3.

For the compound `O=C1CN(CCCCCN2CCCCC2)c2ccc([N+](=O)[O-])cc2N1`, the pIC50 in data set [1] was 4.67; with L6 it was 4.01. In addition, in data set [2], the selectivity ratio was 4.6.

Consider `O=C(NN(c1ccccc1)c1ccccc1)c1cc([N+](=O)[O-])ccc1Cl`, for which the pIC50 in data set [1] is 5.13; in the data set on L6, 4.88. Also, the selectivity ratio in data set [2] turned out to be 1.8.

On to `CCCCn1c2ccc([N+](=O)[O-])cc2c(=O)n1Cc1ccccc1`, for which the pIC50 in data set [1] was 4.31; in the data set on L6, 4.33. The selectivity ratio in data set [2] was determined as 1.

For the compound `O=c1[nH]n(Cc2ccccc2F)c2ccc([N+](=O)[O-])cc12`, the pIC50 is 3.77 in data set [1] and 3.68 with L6. In addition, the selectivity ratio in data set [2] stood at 1.3.
